Results: patent US9517996B2, “Purification of polycarboxylic acids” (Verdezyne, Inc., priority 2014, dated 2016)

Experiment: physchem
Details: thermodynamic from solid
Description: Each polycarboxylic acid was added to the water or acetic acid solution while mixing and kept at the appropriate temperature until the solution became supersaturated as visually determined at least 20 minutes after addition of the polycarboxylic acid.

solubility (20 °C, organic solvent or mixture): < 200 µg/mL
solubility (23 °C, water): < 30 µg/mL
solubility (70 °C, organic solvent or mixture): > 100000 µg/mL
solubility (70 °C, water): < 120 µg/mL
solubility (water): < 1000 µg/mL
Structure (SMILES): O=C(O)CCCCCCCCCCC(=O)O [DDDA, dodecanedioic acid]
